Blank lines part the entries; values can stand above or below the molecule they belong to.
How the values were obtained:
PCSK7 mRNA [1] = assay: PCSK7 mRNA qPCR after miRNA overexpression in Huh7 cells; type: cell-based, human; conditions: Huh7, 48 hours following transfection, vs mock vector
Protocol: (§1) RNA was isolated from the cells with the TRIzol™ Reagent (Invitrogen, USA) according to the manufacturer's instructions. The RNA samples were treated with RNase-free DNase I (Fermentas, USA) to eliminate any possible DNA contamination. Reverse transcription was performed using the PrimeScript™ First Strand cDNA Synthesis Kit (Takara, Japan) following the manufacturer's protocol. Briefly, one unit of the DNase I enzyme, 1 μL of a buffer, and 1 μg of total RNA were incubated for 30 minutes at 37° C. Then, 1 μL of 50 mM EDTA was added for enzyme inactivation and incubated at 65° C. for 10 minutes. Subsequently, 5 μL of DNase-treated RNA was added to the mix of 0.5 μL of the reverse-transcriptase enzyme, 2 μL of the reverse-transcriptase buffer, and 1 μL of a random hexamer and incubated for 15 minutes at 37° C., followed by 5 seconds at 85° C. for enzyme inactivation. Stem-loop RT-qPCR method was applied for evaluating the expression of miRNAs (Kramer, 2011). […]
(§2) All the reactions were repeated in duplicates. Next, melt curves were analyzed, with the mean threshold cycles used for further analyses. The relative expressions of the miRNAs and PCSK7 to RNU48 small nuclear RNA and/or GAPDH and β2m were calculated, respectively, via the 2-ΔΔCt method. […]

PCSK7 mRNA [2] = assay: PCSK7 mRNA qPCR after miRNA overexpression in HEK293T cells; type: cell-based, human
Protocol: as §1, §2

[3] = tested on: 3′-UTR of human PCSK7 mRNAs; assay: Dual-luciferase reporter assay, wild-type PCSK7 3′-UTR, HEK293T cells; type: cell-based; conditions: wild-type PCSK7 3′-UTR psiCHECK-2, HEK293T
Excerpt: The interactions between the miRNAs and their probable targets on PCSK7 were explored by cloning the potential target regions in psiCHECK-2™ (Promega, USA), a luciferase reporter vector. In psiCHECK-2™, hRluc, the Renilla luciferase gene, is located upstream of the target regions of interest cloned into the psiCHECK-2™ vector downstream of the Renilla gene. The region corresponding to the 3′-UTR of PCSK7 (926-nt sequences in length) that constituted the predicted miRNA response elements was PCR-amplified and cloned downstream of the Renilla luciferase gene in the psiCHECK-2™ vector (Promega, USA). […]
The HEK293T cells were co-transfected through the application of the wild-type psiCHECK-2, the wild-type PCSK7 3′-UTR, the mutant PCSK7 3′-UTR, and the miR-overexpressing vectors so that the direct interactions of the nominated miRNAs with PCSK7 3′-UTR could be investigated. […] Transfection efficiency was monitored by fluorescent microscopy (Nikon TE2000S, Japan) 36 hours following the procedure.
The PsiCHECK-2 reporter construct plasmid contained the Renilla luciferase gene upstream of PCSK7 3′-UTR and an independent firefly luciferase gene as an internal control for normalization. […] Then, LARII Reagent was added, and after 20 minutes, the firefly luciferase activity was measured as a control. Afterward, Renilla activity was determined using Stop & Glo Reagent. […]

apoB = apoB degradation pathway in WT and PCSK7-/- IHH cells with pathway inhibitors; type: cell-based, human
Protocol: FIGS. 7A-l: PCSK7 can bind apoB in the ER and acts as a molecular chaperone-like facilitating its secretion, and its absence leads to a rapid degradation of apoB by the proteasome. […] (FIG. 7A) Western blot (presented on gel and graphically) of apoB100 and PC7 protein levels in WT and PCSK7^−/− IHH cells. Levels are normalized to α-tubulin. (FIG. 7B) Western blot (presented on gel and graphically) of apoB100 and PC7 protein levels over time (0, 15 and 30 minutes) in WT and PCSK7^−/− IHH cells incubated with cycloheximide (CHX) to block de novo mRNA translation. Levels are normalized to α-tubulin. (FIG. 7C-D) Western blot (presented on gel and graphically) of cellular apoB levels in WT and PCSK7^−/− IHH cells incubated with brefeldin A (BFA) that blocks exit from the endoplasmic reticulum (ER), an autophagy inhibitor 3-methyladenine (3MA), proteasome inhibitors MG132, Lactacystin, DMSO or non treated (NT) controls. (FIG. 7E) Western blot (presented on gel) of cellular apoB levels and polyubiquitinated apoB100 in WT and PCSK7^−/− IHH cells incubated with Lactacystin. (FIG. 7F) Schematic representation of apoB100 and apoB21 protein. […]

[4] = biological target: T1, endogenous apoB100 of IHH cells (human, UniProt P04114 28-4563); assay: co-immunoprecipitation from IHH cell lysates with a human ApoB antibody, Western blot for the V5 tag (FIG. 7I)
T1 construct: Endogenous protein in lysates of human IHH cells; also called apolipoprotein B
T1 sequence (P04114 28-4563 limits assumed): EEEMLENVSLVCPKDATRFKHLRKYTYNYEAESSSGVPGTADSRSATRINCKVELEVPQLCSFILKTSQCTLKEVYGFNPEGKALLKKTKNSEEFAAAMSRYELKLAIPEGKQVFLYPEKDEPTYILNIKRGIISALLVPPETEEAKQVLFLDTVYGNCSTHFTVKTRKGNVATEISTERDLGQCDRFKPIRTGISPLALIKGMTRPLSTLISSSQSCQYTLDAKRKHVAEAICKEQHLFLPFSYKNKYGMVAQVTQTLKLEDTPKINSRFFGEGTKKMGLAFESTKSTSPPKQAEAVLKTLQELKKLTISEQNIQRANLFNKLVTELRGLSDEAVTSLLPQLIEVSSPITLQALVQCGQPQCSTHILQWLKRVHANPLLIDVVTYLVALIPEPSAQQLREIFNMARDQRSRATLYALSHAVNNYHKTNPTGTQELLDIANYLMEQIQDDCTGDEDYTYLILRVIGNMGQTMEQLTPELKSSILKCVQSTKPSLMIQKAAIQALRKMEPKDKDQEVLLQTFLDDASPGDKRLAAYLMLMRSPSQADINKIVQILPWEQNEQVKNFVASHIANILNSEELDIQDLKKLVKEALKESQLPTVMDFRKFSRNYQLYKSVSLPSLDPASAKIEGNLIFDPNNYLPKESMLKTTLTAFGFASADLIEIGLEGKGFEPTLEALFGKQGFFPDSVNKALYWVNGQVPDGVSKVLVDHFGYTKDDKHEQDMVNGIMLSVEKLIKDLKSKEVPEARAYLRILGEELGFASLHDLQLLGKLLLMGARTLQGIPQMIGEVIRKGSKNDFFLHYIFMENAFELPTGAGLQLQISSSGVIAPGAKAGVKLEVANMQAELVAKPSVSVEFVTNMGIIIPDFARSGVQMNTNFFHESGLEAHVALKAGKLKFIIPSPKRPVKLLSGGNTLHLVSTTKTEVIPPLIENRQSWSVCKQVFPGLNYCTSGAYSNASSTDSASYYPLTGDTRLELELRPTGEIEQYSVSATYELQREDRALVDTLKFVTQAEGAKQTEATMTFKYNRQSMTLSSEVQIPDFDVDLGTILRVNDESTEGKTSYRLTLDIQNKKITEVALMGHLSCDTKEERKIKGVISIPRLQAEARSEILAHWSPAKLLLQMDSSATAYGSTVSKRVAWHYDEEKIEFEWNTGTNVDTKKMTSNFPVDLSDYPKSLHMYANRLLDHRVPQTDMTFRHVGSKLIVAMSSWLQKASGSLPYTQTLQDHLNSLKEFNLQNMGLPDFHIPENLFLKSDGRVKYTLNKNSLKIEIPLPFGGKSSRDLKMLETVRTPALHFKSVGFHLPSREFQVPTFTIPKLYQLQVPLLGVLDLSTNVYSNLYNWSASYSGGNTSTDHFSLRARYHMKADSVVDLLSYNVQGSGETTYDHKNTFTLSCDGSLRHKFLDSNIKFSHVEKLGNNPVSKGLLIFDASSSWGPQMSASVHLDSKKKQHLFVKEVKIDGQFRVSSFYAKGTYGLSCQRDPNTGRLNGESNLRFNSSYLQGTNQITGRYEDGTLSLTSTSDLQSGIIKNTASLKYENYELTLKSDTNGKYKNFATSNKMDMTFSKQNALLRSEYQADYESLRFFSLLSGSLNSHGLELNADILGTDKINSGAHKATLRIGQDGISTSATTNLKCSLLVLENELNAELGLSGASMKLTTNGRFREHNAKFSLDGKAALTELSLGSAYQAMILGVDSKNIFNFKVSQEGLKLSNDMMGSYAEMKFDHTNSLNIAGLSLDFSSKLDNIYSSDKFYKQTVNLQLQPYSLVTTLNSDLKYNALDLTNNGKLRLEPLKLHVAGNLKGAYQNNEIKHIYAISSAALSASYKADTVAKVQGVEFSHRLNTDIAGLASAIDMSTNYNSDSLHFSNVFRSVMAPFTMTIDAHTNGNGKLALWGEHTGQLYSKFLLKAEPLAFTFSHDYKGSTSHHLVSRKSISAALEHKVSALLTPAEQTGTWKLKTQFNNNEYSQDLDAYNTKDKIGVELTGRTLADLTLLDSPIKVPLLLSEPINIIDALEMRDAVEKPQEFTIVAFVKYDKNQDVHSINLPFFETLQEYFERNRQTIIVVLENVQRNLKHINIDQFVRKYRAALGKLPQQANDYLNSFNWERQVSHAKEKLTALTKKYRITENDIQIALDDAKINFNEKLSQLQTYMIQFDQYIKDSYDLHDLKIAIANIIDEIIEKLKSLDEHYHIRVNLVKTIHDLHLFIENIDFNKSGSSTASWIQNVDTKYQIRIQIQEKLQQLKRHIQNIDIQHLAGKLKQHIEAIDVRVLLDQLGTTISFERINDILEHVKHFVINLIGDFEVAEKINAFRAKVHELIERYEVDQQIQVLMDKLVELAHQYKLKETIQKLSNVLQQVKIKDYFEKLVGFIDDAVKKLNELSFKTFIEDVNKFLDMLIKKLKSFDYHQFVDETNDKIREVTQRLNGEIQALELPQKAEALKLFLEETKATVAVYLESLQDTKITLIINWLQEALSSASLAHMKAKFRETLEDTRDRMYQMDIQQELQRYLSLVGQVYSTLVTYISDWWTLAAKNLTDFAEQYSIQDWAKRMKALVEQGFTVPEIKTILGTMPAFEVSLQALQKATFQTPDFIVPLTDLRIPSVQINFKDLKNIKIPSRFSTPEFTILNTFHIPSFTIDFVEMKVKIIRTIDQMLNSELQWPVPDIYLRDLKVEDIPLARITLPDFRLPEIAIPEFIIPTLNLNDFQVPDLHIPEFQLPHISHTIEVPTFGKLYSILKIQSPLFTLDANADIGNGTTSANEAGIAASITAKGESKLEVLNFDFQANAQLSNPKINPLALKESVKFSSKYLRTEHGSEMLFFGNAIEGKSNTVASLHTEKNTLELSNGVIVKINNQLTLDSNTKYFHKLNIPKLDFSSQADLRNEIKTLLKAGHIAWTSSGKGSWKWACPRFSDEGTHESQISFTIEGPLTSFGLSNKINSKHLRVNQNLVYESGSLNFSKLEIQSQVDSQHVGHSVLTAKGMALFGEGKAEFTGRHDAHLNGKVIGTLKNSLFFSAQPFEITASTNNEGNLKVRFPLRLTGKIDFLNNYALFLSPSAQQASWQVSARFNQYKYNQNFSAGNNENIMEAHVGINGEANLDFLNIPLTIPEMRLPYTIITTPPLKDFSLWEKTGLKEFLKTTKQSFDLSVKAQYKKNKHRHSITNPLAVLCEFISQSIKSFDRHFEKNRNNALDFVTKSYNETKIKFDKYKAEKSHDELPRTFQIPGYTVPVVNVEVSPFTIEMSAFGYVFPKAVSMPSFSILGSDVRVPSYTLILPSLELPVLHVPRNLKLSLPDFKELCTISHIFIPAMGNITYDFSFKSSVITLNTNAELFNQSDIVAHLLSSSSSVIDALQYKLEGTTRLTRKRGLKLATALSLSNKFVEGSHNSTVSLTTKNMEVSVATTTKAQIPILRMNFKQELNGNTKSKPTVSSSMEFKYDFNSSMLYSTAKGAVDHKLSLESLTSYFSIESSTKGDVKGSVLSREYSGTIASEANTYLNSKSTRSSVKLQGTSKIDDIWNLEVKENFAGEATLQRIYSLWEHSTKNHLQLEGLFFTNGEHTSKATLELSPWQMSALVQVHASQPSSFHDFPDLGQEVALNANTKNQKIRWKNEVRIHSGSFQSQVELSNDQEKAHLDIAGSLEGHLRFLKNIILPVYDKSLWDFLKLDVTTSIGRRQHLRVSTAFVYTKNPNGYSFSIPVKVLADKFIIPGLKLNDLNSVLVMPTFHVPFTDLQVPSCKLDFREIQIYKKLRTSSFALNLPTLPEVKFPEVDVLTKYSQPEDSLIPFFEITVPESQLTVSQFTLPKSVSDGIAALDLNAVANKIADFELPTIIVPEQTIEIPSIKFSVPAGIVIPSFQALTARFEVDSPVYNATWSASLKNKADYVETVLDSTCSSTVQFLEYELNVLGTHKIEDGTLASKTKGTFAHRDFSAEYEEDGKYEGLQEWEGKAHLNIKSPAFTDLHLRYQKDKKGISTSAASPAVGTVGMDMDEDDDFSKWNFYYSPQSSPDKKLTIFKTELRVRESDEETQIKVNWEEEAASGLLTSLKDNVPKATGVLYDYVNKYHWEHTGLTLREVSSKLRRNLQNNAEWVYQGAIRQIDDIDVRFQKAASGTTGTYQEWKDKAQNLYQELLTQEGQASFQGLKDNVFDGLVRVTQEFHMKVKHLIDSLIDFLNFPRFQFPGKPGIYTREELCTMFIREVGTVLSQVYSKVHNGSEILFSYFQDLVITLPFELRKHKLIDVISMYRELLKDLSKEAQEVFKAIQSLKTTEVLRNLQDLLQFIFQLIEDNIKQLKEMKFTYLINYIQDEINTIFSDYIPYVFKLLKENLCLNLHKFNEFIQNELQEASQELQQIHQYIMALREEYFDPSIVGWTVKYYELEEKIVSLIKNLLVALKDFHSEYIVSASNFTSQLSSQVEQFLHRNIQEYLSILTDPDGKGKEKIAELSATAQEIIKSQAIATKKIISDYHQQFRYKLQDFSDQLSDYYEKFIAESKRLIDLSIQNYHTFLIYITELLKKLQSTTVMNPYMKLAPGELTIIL

Molecule: miR-320a-3p: predicted PCSK7-targeting miRNA with one predicted target site, overexpressed from precursor vector (AAAAGCUGGGUUGAGAGGGCGA; miRNA expressed from a precursor vector, further chemistry not given here)
effect on expression of PCSK7 mRNA (PCSK7 mRNA [1]): did not downregulate | effect on PCSK7 mRNA levels (PCSK7 mRNA [2]): no significant regulatory relationship | effect on luciferase activity [3]: no significant effect

Molecule: C[C@H]1CCC/C=C/[C@@H]2C[C@H](O)C[C@H]2[C@H](O)/C=C/C(=O)O1 [BFA, brefeldin A]
inhibition of apoB degradation (apoB): absence of BFA inhibition

binding result [4]: no binding
B1: SKI-1 tagged with V5 (enzyme, UniProt Q14703 187-1052, looked up)
chain: RAIPRQVAQTLQADVLWQMGYTGANVRVAVFDTGLSEKHPHFKNVKERTNWTNERTLDDGLGHGTFVAGVIASMRECQGFAPDAELHIFRVFTNNQVSYTSWFLDAFNYAILKKIDVLNLSIGGPDFMDHPFVDKVWELTANNVIMVSAIGNDGPLYGTLNNPADQMDVIGVGGIDFEDNIARFSSRGMTTWELPGGYGRMKPDIVTYGAGVRGSGVKGGCRALSGTSVASPVVAGAVTLLVSTVQKRELVNPASMKQALIASARRLPGVNMFEQGHGKLDLLRAYQILNSYKPQASLSPSYIDLTECPYMWPYCSQPIYYGGMPTVVNVTILNGMGVTGRIVDKPDWQPYLPQNGDNIEVAFSYSSVLWPWSGYLAISISVTKKAASWEGIAQGHVMITVASPAETESKNGAEQTSTVKLPIKVKIIPTPPRSKRVLWDQYHNLRYPPGYFPRDNLRMKNDPLDWNGDHIHTNFRDMYQHLRSMGYFVEVLGAPFTCFDASQYGTLLMVDSEEEYFPEEIAKLRRDVDNGLSLVIFSDWYNTSVMRKVKFYDENTRQWWMPDTGGANIPALNELLSVWNMGFSDGLYEGEFTLANHDMYYASGCSIAKFPEDGVVITQTFKDQGLEVLKQETAVVENVPILGLYQIPAEGGGRIVLYGDSNCLDDSHRQKDCFWLLDALLQYTSYGVTPPSLSHSGNRQRPPSGAGSVTPERMEGNHLHRYSKVLEAHLGDPKPRPLPACPRLSWAKPQPLNETAPSNLWKHQKLLSIDLDKVVLPNFRSNRPQVRPLSPGESGAWDIPGGIMPGRYNQEVGQTIPVFAFLGAMVVLAFFVVQINKAKSRPKRRKPRVKRPQLMQQVHPPKTPSV
notes: also called SKI-1-V5; not shown: V5 tag
